Source: a compilation of properties of binary mixtures (doi:10.1007/s10953-015-0325-1)

Test: xn = mol fraction of the nth substance listed
Conditions: 100 kPa

CCCCCC[n+]1ccn(C)c1.F[P-](F)(F)(F)(F)F + CCCN
speed of sound [m/s]
Conditions | x2 = 0 | x2 = 0.0873 | x2 = 0.1718 | x2 = 0.2686 | x2 = 0.3426 | x2 = 0.4606 | x2 = 0.5627 | x2 = 0.6597 | x2 = 0.7913 | x2 = 0.902
293.15 K | 1436.9 | – | 1411 | 1396.5 | 1385.5 | 1365.7 | 1347.1 | 1324 | 1289.8 | 1258.5
298.15 K | 1423.5 | 1408 | – | 1382.6 | 1370.4 | 1350.8 | 1330.3 | 1309 | 1271.5 | 1238.6
303.15 K | 1410.6 | 1396.1 | – | 1366.5 | 1354.3 | – | – | 1291.1 | 1253.1 | 1216.1
308.15 K | 1398.2 | – | 1370.6 | 1351.7 | 1337.3 | 1315.3 | – | – | 1230.8 | 1193
313.15 K | – | 1372.5 | 1357.5 | 1336.2 | 1320.4 | 1297.1 | – | 1250 | – | 1170

CCCC[n+]1ccn(C)c1.F[P-](F)(F)(F)(F)F + CCCN
x2 = 0
Conditions | speed of sound [m/s]
293.15 K | 1454.7
298.15 K | 1442.4
303.15 K | 1430.3
308.15 K | 1418.5
313.15 K | 1406.8

CCCN + CCCC[n+]1ccn(C)c1.F[P-](F)(F)(F)(F)F
speed of sound [m/s]
Conditions | x1 = 0.0684 | x1 = 0.155 | x1 = 0.2613 | x1 = 0.3519 | x1 = 0.4366 | x1 = 0.5956 | x1 = 0.69 | x1 = 0.79 | x1 = 0.9026 | x1 = 1
293.15 K | 1444.7 | 1429.8 | 1407.5 | – | 1371.3 | – | 1315 | 1288.8 | – | –
298.15 K | – | 1419.3 | 1395 | – | 1355.3 | 1320.6 | – | 1269.5 | 1235.5 | –
303.15 K | – | – | 1380.5 | – | 1338 | – | 1277.6 | 1247.8 | – | 1189.5
308.15 K | 1412.4 | – | 1365.2 | 1341 | 1319.8 | 1280.4 | 1257 | 1225.2 | 1189.2 | 1164.9
313.15 K | 1399.6 | 1380.1 | 1348.8 | 1324.5 | 1300 | – | – | 1202.5 | 1165.5 | 1140.4

CCCCCCCC[n+]1ccn(C)c1.F[P-](F)(F)(F)(F)F + CCCN
x2 = 0
Conditions | speed of sound [m/s]
293.15 K | 1421.2
298.15 K | 1406.4
308.15 K | 1378.8
313.15 K | 1365.7

CCCN + CCCCCCCC[n+]1ccn(C)c1.F[P-](F)(F)(F)(F)F
speed of sound [m/s]
Conditions | x1 = 0.0976 | x1 = 0.218 | x1 = 0.263 | x1 = 0.3677 | x1 = 0.4676 | x1 = 0.5629 | x1 = 0.6971 | x1 = 0.7972 | x1 = 0.9087 | x1 = 1
293.15 K | 1408 | 1392.4 | 1388.7 | 1375.5 | 1363.8 | – | 1327.2 | 1296.3 | 1260.5 | –
298.15 K | 1393.2 | 1378.7 | 1375 | – | – | 1335.9 | – | – | 1244 | 1213.9
303.15 K | 1381.2 | 1362.6 | 1358.9 | 1344.5 | 1332.1 | 1316.2 | – | 1260.7 | – | –
308.15 K | 1368.6 | 1348.2 | – | 1330.1 | 1314.1 | 1299.6 | 1270.5 | 1239.1 | – | 1164.9
313.15 K | – | 1333.4 | – | 1312.1 | 1295.8 | 1278.5 | – | 1218.2 | 1177.2 | 1140.4

CCCN + CCCCCC[n+]1ccn(C)c1.F[P-](F)(F)(F)(F)F
x1 = 1
Conditions | speed of sound [m/s]
293.15 K | 1238.3
303.15 K | 1189.5
308.15 K | 1164.9
313.15 K | 1140.4
